From the supplement of paper PMC11061612

Experiments:
[1] = tested on: G-401 (Other Solid Carcinomas); experiment: combination Emax (second highest fraction inhibited in the dose matrix, 72 h); higher = more inhibition; extreme values may be limits of the assay
Procedure, shortened: (§1)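 Cell lines grown in DMEM/F12 or RPMI with 10% FBS were plated in 1536-well plates and held 24 hours at 37°C, 5% CO2 before 72 hours of exposure to two-drug dose matrices, with DMSO typically at 0.2%. CellTiter-Glo 2.0 luminescence gave viability, which was converted to inhibition. Vehicle wells were set to 0 and blank wells to 1. Combination Emax is the second-highest inhibition in the matrix, and Bliss excess is the observed combination effect minus the expected EA + EB − EA·EB, where EA and EB are the single-agent effects.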

[2] = tested on: HAL-01 (B-Lymphoblastic Leukemia); experiment: as above
Procedure, shortened: as §1

[3] = tested on: NCI-H1092 (Small Cell Lung Carcinoma); experiment: as above
Procedure, shortened: as §1

EW-1 (Ewing's Sarcoma) = experiment: as above
Procedure, shortened: as §1

[4] = tested on: HCC1500 (Breast Carcinoma); experiment: as above
Procedure, shortened: as §1

[5] = tested on: MDA-MB-453 (Breast Carcinoma); experiment: as above
Procedure, shortened: as §1

[6] = tested on: SW872 (Other Solid Carcinomas); experiment: as above
Procedure, shortened: as §1

[7] = tested on: OE33 (Esophageal Adenocarcinoma); experiment: as above
Procedure, shortened: as §1

[8] = tested on: NCI-H1355 (Lung Adenocarcinoma); experiment: as above
Procedure, shortened: as §1

[9] = tested on: COLO-668 (Small Cell Lung Carcinoma); experiment: as above
Procedure, shortened: as §1

[10] = tested on: NCI-H2122 (Lung Adenocarcinoma); experiment: as above
Procedure, shortened: as §1

[11] = tested on: SNU-387 (Hepatocellular Carcinoma); experiment: as above
Procedure, shortened: as §1

[12] = tested on: OACM5-1 (Esophageal Adenocarcinoma); experiment: as above
Procedure, shortened: as §1

[13] = tested on: A4-Fuk (B-Lymphoblastic Leukemia); experiment: as above
Procedure, shortened: as §1

[14] = tested on: Ca-Ski (Cervical Carcinoma); experiment: as above
Procedure, shortened: as §1

[15] = tested on: KOPN-8 (B-Lymphoblastic Leukemia); experiment: as above
Procedure, shortened: as §1

[16] = tested on: ALL-SIL (T-Lymphoblastic Leukemia); experiment: as above
Procedure, shortened: as §1

[17] = tested on: HCC1937 (Breast Carcinoma); experiment: as above
Procedure, shortened: as §1

[18] = tested on: SW872 (Other Solid Carcinomas); experiment: Bliss excess, mean over the matrix (fraction); higher = more synergy
Procedure, shortened: as §1

[19] = tested on: NCI-H650 (Lung Adenocarcinoma); experiment: as above
Procedure, shortened: as §1
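Throughout, for Bliss excess, mean over the matrix: after 72 h of two-drug dosing.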

| SMILES | combination Emax [1] | combination Emax [2] | combination Emax [3] | combination Emax (EW-1 (Ewing's Sarcoma)) | combination Emax [4] | combination Emax [5] | combination Emax [6] | combination Emax [7] | combination Emax [8] | combination Emax [9] | combination Emax [10] | combination Emax [11] | combination Emax [12] | combination Emax [13] | combination Emax [14] | combination Emax [15] | combination Emax [16] | combination Emax [17] | Bliss excess [18] | Bliss excess [19] |
| --- | --- | --- | --- | --- | --- | --- | --- | --- | --- | --- | --- | --- | --- | --- | --- | --- | --- | --- | --- | --- |
| CC(=O)c1c(C)c2cnc(Nc3ccc(N4CCNCC4)cn3)nc2n(C2CCCC2)c1=O [Palbociclib] + Cn1cnc2c(F)c(Nc3ccc(Br)cc3Cl)c(C(=O)NOCCO)cc21 [Selumetinib] (first compound max 10 µM, 7x7, partner max 10 µM) | 0.859 | 0.928 | 0.11 | 0.551 | 0.193 | 0.241 | 0.169 | 0.259 | 0.325 | 0.363 | 0.954 | 0.221 | 0.477 | 0.732 | 0.301 | 0.801 | 0.38 | 0.214 | -0.0263 | 0.0058 |
| COc1cccc(OCCCN)c1-c1cc(Nc2cnc(C#N)cn2)n[nH]1 [Prexasertib] + C=CCn1c(=O)c2cnc(Nc3ccc(N4CCN(C)CC4)cc3)nc2n1-c1cccc(C(C)(C)O)n1 [AZD1775] (first compound max 1 µM, partner max 1 µM) | 0.905 | 1 | 0.756 | 0.966 | 0.541 | 0.909 | 0.933 | 0.829 | 0.756 | 0.881 | 0.984 | 0.729 | 0.802 | 0.906 | 0.874 | 0.995 | 1 | 0.584 | 0.144 | 0.0382 |
| COc1cccc(OCCCN)c1-c1cc(Nc2cnc(C#N)cn2)n[nH]1 [Prexasertib] + CCc1c2c(nc3ccc(O)cc13)-c1cc3c(c(=O)n1C2)COC(=O)[C@]3(O)CC [SN-38] (first compound max 1 µM, 7x7, partner max 0.3 µM) | 0.929 | 1 | 0.899 | 0.995 | 0.934 | 0.929 | 1 | 0.811 | 0.756 | 0.973 | 0.984 | 0.795 | 0.854 | 0.972 | 0.983 | 1 | 1 | 0.92 | -0.015 | -0.0227 |
| COc1cccc(OCCCN)c1-c1cc(Nc2cnc(C#N)cn2)n[nH]1 [Prexasertib] + CN(C)CCCOc1ccc(-c2ccc3ncc4c(c3c2)n(C2CCOCC2)c(=O)n4C)cn1 [AZD0156] (first compound max 1 µM, 7x7, partner max 1 µM) | 0.626 | 1 | 0.74 | 0.958 | 0.348 | 0.926 | 0.863 | 0.826 | 0.709 | 0.758 | 0.975 | 0.531 | 0.624 | 0.885 | 0.741 | 0.947 | 0.958 | 0.537 | -0.0035 | -0.008 |
| COc1cccc(OCCCN)c1-c1cc(Nc2cnc(C#N)cn2)n[nH]1 [Prexasertib] + C[C@@H]1COCCN1C2=NC(=NC(=C2)C3(CC3)[S@](=N)(=O)C)C4=C5C=CNC5=NC=C4 [AZD6738] (first compound max 1 µM, 7x7, partner max 10 µM) | 0.565 | 1 | 0.698 | 0.96 | 0.383 | 0.888 | 0.884 | 0.858 | 0.74 | 0.746 | 0.99 | 0.537 | 0.621 | 0.879 | 0.728 | 0.977 | 0.993 | 0.537 | 0.01 | -0.0278 |
| COc1cccc(OCCCN)c1-c1cc(Nc2cnc(C#N)cn2)n[nH]1 [Prexasertib] + Cc1cc2ncnn2cc1Nc1ncc2c(n1)n(C1CCOCC1)c(=O)n2C [AZD7648] (first compound max 1 µM, 7x7, partner max 10 µM) | 0.588 | 1 | 0.707 | 0.962 | 0.334 | 0.908 | 0.867 | 0.823 | 0.714 | 0.786 | 0.984 | 0.552 | 0.643 | 0.89 | 0.794 | 0.966 | 0.983 | 0.537 | 0.0191 | -0.0389 |
| COc1cccc(OCCCN)c1-c1cc(Nc2cnc(C#N)cn2)n[nH]1 [Prexasertib] + O=C(c1cc(Cc2n[nH]c(=O)c3ccccc23)ccc1F)N1CCN(C(=O)C2CC2)CC1 [Olaparib] (first compound max 1 µM, 7x7, partner max 10 µM) | 0.533 | 1 | 0.67 | 0.96 | 0.286 | 0.776 | 0.937 | 0.691 | 0.746 | 0.736 | 1 | 0.542 | 0.641 | 0.919 | 0.787 | 0.961 | 0.992 | 0.503 | -0.018 | -0.0442 |
| CCc1c2c(nc3ccc(O)cc13)-c1cc3c(c(=O)n1C2)COC(=O)[C@]3(O)CC [SN-38] + CN(C)CCCOc1ccc(-c2ccc3ncc4c(c3c2)n(C2CCOCC2)c(=O)n4C)cn1 [AZD0156] (first compound max 0.3 µM, 7x7, partner max 1 µM) | 0.596 | 1 | 0.323 | 0.982 | 0.708 | 0.772 | 0.98 | 0.642 | 0.361 | 0.961 | 0.843 | 0.229 | 0.763 | 0.923 | 0.99 | 0.957 | 0.995 | 0.487 | 0.0048 | -0.0066 |
| Cn1cnc2c(F)c(Nc3ccc(Br)cc3Cl)c(C(=O)NOCCO)cc21 [Selumetinib] + C=CCn1c(=O)c2cnc(Nc3ccc(N4CCN(C)CC4)cc3)nc2n1-c1cccc(C(C)(C)O)n1 [AZD1775] (first compound max 10 µM, partner max 1 µM) | 0.828 | 0.876 | 0.371 | 0.883 | 0.207 | 0.206 | 0.29 | 0.445 | 0.479 | 0.47 | 0.985 | 0.544 | 0.642 | 0.948 | 0.711 | 0.995 | 0.881 | 0.562 | 0.0086 | 0.0099 |
| Cn1cnc2c(F)c(Nc3ccc(Br)cc3Cl)c(C(=O)NOCCO)cc21 [Selumetinib] + CC(C)n1c(=O)n(C)c2cnc3cc(F)c(-c4ccc(OCCCN5CCCCC5)nc4)cc3c21 [AZD1390] (first compound max 10 µM, 7x7, partner max 0.3 µM) | 0.367 | 0.48 | 0.0809 | 0.159 | 0.157 | 0.171 | 0.203 | 0.265 | 0.172 | 0.421 | 0.864 | 0.284 | 0.209 | 0.404 | 0.222 | 0.596 | 0.25 | 0.208 | 0.0169 | -0.0329 |
| Cn1cnc2c(F)c(Nc3ccc(Br)cc3Cl)c(C(=O)NOCCO)cc21 [Selumetinib] + CCN(CCO)CCCOc1ccc2c(Nc3cc(CC(=O)Nc4cccc(F)c4)[nH]n3)ncnc2c1 [AZD2811] (first compound max 10 µM, 7x7, partner max 1 µM) | 0.561 | 0.441 | 0.215 | 0.391 | 0.157 | 0.162 | 0.285 | 0.364 | 0.275 | 0.407 | 0.962 | 0.319 | 0.44 | 0.661 | 0.54 | 1 | 0.961 | 0.314 | -0.01 | 0.0056 |
| Cn1cnc2c(F)c(Nc3ccc(Br)cc3Cl)c(C(=O)NOCCO)cc21 [Selumetinib] + C[C@@H]1COCCN1C2=NC(=NC(=C2)C3(CC3)[S@](=N)(=O)C)C4=C5C=CNC5=NC=C4 [AZD6738] (first compound max 10 µM, 7x7, partner max 10 µM) | 0.684 | 0.976 | 0.111 | 0.892 | 0.183 | 0.684 | 0.276 | 0.775 | 0.596 | 0.735 | 0.972 | 0.454 | 0.612 | 0.836 | 0.638 | 1 | 0.934 | 0.421 | 0.0211 | 0.0926 |
| CC(=O)Nc1cccc(-n2c(=O)n(C3CC3)c(=O)c3c(Nc4ccc(I)cc4F)n(C)c(=O)c(C)c32)c1 [Trametinib] + Cc1nc(-c2cn3c(n2)-c2ccc(-c4cnn(C(C)(C)C(N)=O)c4)cc2OCC3)n(C(C)C)n1 [Taselisib] (first compound max 1 µM, 7x7, partner max 10 µM) | 0.958 | 0.687 | 0.161 | 0.761 | 0.319 | 0.798 | 0.588 | 0.84 | 0.69 | 0.96 | 1 | 1 | 0.82 | 1 | 0.816 | 0.635 | 0.831 | 0.722 | 0.0847 | 0.136 |
